According to PMC3567211 (2012):

Test system: TGGCTT (5'-biotin labeled hairpin DNA) (DNA, hairpin) CCTTGGCTTCTTTTGAAGCCAAGG
Experiment: SPR, global kinetic 1:1 fit
Conditions: 50 mM Na+ (NaCl); 10 mM HEPES, 1 mM EDTA, 0.05% P20, pH 7.4, 25 °C

With `CN(C)CCCNC(=O)CCNC(=O)c1cc(NC(=O)c2cc(NC(=O)c3nc(NC(=O)c4cc(NC(=O)CCCNC(=O)c5cc(NC(=O)c6cc(NC(=O)c7nc(NC(=O)c8nccn8C)cn7C)cn6C)cn5C)cn4C)cn3C)cn2C)cn1C` the KA was 37 ± 7 × 10^8 M^-1.
